Laboratory results as given in PMC10541198, “Specific quinone reductase 2 inhibitors reduce metabolic burden and reverse Alzheimer’s disease phenotype in mice” (The Journal of Clinical Investigation, 2023).
Where “and” joins values, the source holds several entries; their conditions need not be identical. Equal values may be shown once.

Test system: 5xFAD mice
Assay: Open field in 5xFAD mice
Format: in vivo, mouse
Conditions: for hind-limb rearing frequency / maximum movement bout duration / meandering / proportion of time moving / total distance traveled / total movement duration / average velocity: 5xFAD 1 month; for Sup. Fig. 5-2C, open field parameter / Sup. Fig. 5-2D, open field parameter / Sup. Fig. 5-2E, open field parameter / Sup. Fig. 5-2F, open field parameter / Sup. Fig. 5-2G, open field parameter / Sup. Fig. 5-2H, open field parameter / Sup. Fig. 5-2I, open field parameter: individual animals
Procedure: Mice were individually placed within a cage and taken to a dimly lit room containing an open field arena 50 x 50 cm in size. They were gi ve n 10 min prior to be i ng placed within the arena, where f or a period of 5 min they were allowed to explore. Two weeks later, this was repeated. The mice were filmed with an Ikegami ICD-49E camera with EthoVision 14 (Noldus Information Technology). Th e fl oor was ei ther whit e or black,dependingon mous e coat c ol or, to allow automatic analysisof movement par am et ers, apar t from rearing which was manually counted. […]

Cc1ccc(-c2cn3cccc(C)c3n2)cc1S(=O)(=O)N1CCNCC1 [YB-537]
hind-limb rearing frequency (both sexes): 35.72 ± 3.292
maximum movement bout duration (both sexes): 8.061 ± 1.322 s
meandering (both sexes): 733.4 ± 42.8 deg/cm
proportion of time moving (both sexes): 81.44 ± 1.134%
total distance traveled (both sexes): 3244 ± 237.9 cm
total movement duration (both sexes): 244.3 ± 3.402 s
average velocity (both sexes, n=16): 10.9 ± 0.800 cm/s
hind-limb rearing frequency (females): 35.29 ± 4.894
maximum movement bout duration (females): 9.677 ± 3.012 s
meandering (females): 696.3 ± 65.26 deg/cm
proportion of time moving (females): 81.84 ± 1.856%
total distance traveled (females): 3581 ± 484.5 cm
total movement duration (females): 245.5 ± 5.568 s
average velocity (females, n=7): 12.03 ± 1.625 cm/s
hind-limb rearing frequency (males): 36.06 ± 4.703
maximum movement bout duration (males): 6.804 ± 0.2919 s
meandering (males): 762.2 ± 58.17 deg/cm
proportion of time moving (males): 81.13 ± 1.5%
total distance traveled (males): 2983 ± 179.3 cm
total movement duration (males): 243.4 ± 4.5 s
average velocity (males, n=9): 10.01 ± 0.611 cm/s
Sup. Fig. 5-2C, open field parameter (Females): 10.98 and 10.27 and 10.24 and 21.02 and 13.07 and 7.45 and 11.20
Sup. Fig. 5-2D, open field parameter (Females): 3256.8 and 3049.8 and 3043.6 and 6259.0 and 3891.4 and 2217.1 and 3346.6
Sup. Fig. 5-2E, open field parameter (Females): 773.0 and 764.4 and 714.5 and 402.2 and 601.2 and 962.5 and 656.3
Sup. Fig. 5-2F, open field parameter (Females): 6.70 and 6.10 and 6.62 and 27.48 and 6.06 and 5.20 and 9.58
Sup. Fig. 5-2G, open field parameter (Females): 244.56 and 241.26 and 242.64 and 269.82 and 249.06 and 220.20 and 251.04
Sup. Fig. 5-2H, open field parameter (Females): 81.52 and 80.42 and 80.88 and 89.94 and 83.02 and 73.40 and 83.68
Sup. Fig. 5-2I, open field parameter (Females): 50 and 30.5 and 32 and 31.5 and 55 and 17 and 31
Sup. Fig. 5-2C, open field parameter (Males + Females): 10.98 and 10.27 and 10.24 and 21.02 and 7.23 and 10.34 and 8.54 and 12.00 and 10.63 and 9.25 and 12.61 and 11.34 and 8.16 and 13.07 and 7.45 and 11.20
Sup. Fig. 5-2D, open field parameter (Males + Females): 3256.8 and 3049.8 and 3043.6 and 6259.0 and 2163.2 and 3078.1 and 2557.7 and 3556.2 and 3161.5 and 2756.6 and 3753.0 and 3376.0 and 2440.2 and 3891.4 and 2217.1 and 3346.6
Sup. Fig. 5-2E, open field parameter (Males + Females): 773.0 and 764.4 and 714.5 and 402.2 and 993.0 and 822.7 and 744.6 and 500.6 and 644.6 and 955.7 and 543.5 and 756.2 and 899.4 and 601.2 and 962.5 and 656.3
Sup. Fig. 5-2F, open field parameter (Males + Females): 6.70 and 6.10 and 6.62 and 27.48 and 6.46 and 7.38 and 6.24 and 6.00 and 7.90 and 5.98 and 6.32 and 8.40 and 6.56 and 6.06 and 5.20 and 9.58
Sup. Fig. 5-2G, open field parameter (Males + Females): 244.56 and 241.26 and 242.64 and 269.82 and 228.20 and 238.00 and 244.72 and 264.44 and 254.26 and 226.58 and 258.62 and 243.36 and 232.42 and 249.06 and 220.20 and 251.04
Sup. Fig. 5-2H, open field parameter (Males + Females): 81.52 and 80.42 and 80.88 and 89.94 and 76.07 and 79.33 and 81.57 and 88.15 and 84.75 and 75.53 and 86.21 and 81.12 and 77.47 and 83.02 and 73.40 and 83.68
Sup. Fig. 5-2I, open field parameter (Males + Females): 50.0 and 30.5 and 32.0 and 31.5 and 12.5 and 27.5 and 35.0 and 60.5 and 43.0 and 34.0 and 45.0 and 44.0 and 23.0 and 55.0 and 17.0 and 31.0
Sup. Fig. 5-2C, open field parameter (Males): 12.00 and 10.63 and 9.25 and 12.61 and 11.34 and 8.16 and 7.23 and 10.34 and 8.54
Sup. Fig. 5-2D, open field parameter (Males): 3556.2 and 3161.5 and 2756.6 and 3753.0 and 3376.0 and 2440.2 and 2163.2 and 3078.1 and 2557.7
Sup. Fig. 5-2E, open field parameter (Males): 500.6 and 644.6 and 955.7 and 543.5 and 756.2 and 899.4 and 993.0 and 822.7 and 744.6
Sup. Fig. 5-2F, open field parameter (Males): 6.00 and 7.90 and 5.98 and 6.32 and 8.40 and 6.56 and 6.46 and 7.38 and 6.24
Sup. Fig. 5-2G, open field parameter (Males): 264.44 and 254.26 and 226.58 and 258.62 and 243.36 and 232.42 and 228.20 and 238.00 and 244.72
Sup. Fig. 5-2H, open field parameter (Males): 88.15 and 84.75 and 75.53 and 86.21 and 81.12 and 77.47 and 76.07 and 79.33 and 81.57
Sup. Fig. 5-2I, open field parameter (Males): 60.5 and 43 and 34 and 45 and 44 and 23 and 12.5 and 27.5 and 35
